Measurements: ChEMBL document CHEMBL1932949, “Novel indoleamine 2,3-dioxygenase-1 inhibitors from a multistep in silico screen” (Bioorg Med Chem, 2012)

Columns and labels:
[1] = molecular target: T1, Indoleamine 2,3-dioxygenase 1 (Homo sapiens, UniProt P14902); assay: Inhibition of His-tagged recombinant human IDO1 expressed in Escherichia coli using tryptophan as substrate by spectrophotometric analysis
Target sequence in this assay (P14902 whole entry): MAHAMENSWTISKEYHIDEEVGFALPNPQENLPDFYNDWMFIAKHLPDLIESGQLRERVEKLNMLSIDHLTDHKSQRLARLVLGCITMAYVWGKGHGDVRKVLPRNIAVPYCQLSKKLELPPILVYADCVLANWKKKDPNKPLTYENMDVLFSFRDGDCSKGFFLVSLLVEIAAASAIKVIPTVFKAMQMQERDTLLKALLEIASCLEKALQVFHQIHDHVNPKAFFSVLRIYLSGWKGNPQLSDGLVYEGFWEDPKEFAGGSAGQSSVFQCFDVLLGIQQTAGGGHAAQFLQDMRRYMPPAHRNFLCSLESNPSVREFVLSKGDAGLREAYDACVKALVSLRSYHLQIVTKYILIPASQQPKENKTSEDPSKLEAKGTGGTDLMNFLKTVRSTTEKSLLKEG

[2] = molecular target: T1, Indoleamine 2,3-dioxygenase 1; details: at 200 µM
Target sequence in this assay (P14902 whole entry, looked up): as the sequence (P14902 whole entry) above
Description: Inhibition of His-tagged recombinant human IDO1 expressed in Escherichia coli using tryptophan as substrate at 200 uM by spectrophotometric analysis

[3] = molecular target: T1, Indoleamine 2,3-dioxygenase 1; assay: Inhibition of IDO1
Target sequence in this assay (P14902 whole entry): as above

[4] = molecular target: T1, Indoleamine 2,3-dioxygenase 1; assay: Inhibition of His-tagged recombinant human IDO1 expressed in Escherichia coli using tryptophan as substrate by Ehrlich's method
Target sequence in this assay (P14902 whole entry): as above

[5] = molecular target: T1, Indoleamine 2,3-dioxygenase 1; assay: Inhibition of His-tagged recombinant human IDO1 expressed in Escherichia coli using tryptophan as substrate at 100 uM by spectrophotometric analysis
Target sequence in this assay (P14902 whole entry, looked up): as the sequence (P14902 whole entry) above

[6] = molecular target: T1, Indoleamine 2,3-dioxygenase 1; assay: Inhibition of His-tagged recombinant human IDO1 expressed in Escherichia coli using tryptophan as substrate by HPLC analysis
Target sequence in this assay (P14902 whole entry): as above

[7] = Dissociation constant, pKa of the compound; format: physicochemical

| inhibition [2] [%] | SMILES | also measured |
| --- | --- | --- |
| – | O=C(O)c1cc2ccccc2cc1O | IC50 [1]: 1000 µM |
| 0 | Sc1nnc2nnc3ccccc3n12 | – |
| 0 | O=c1nc2sccn2c2ncccc12 | – |
| 0 | Cc1cc2nnc(/C(N)=N/O)c(C)n2n1 | – |
| 0 | CN1CCN(C(=O)c2nccnc2C(=O)O)CC1 | – |
| – | Cc1[nH]ccc2c1[nH]c1cc(=O)ccc12 [HARMOL] | IC50 [3]: 2000 µM |
| – | Nc1cc2ccccc2cc1CO | IC50 [1]: 190 µM |
| 70 | Cc1nnsc1C(=O)O/N=C(/N)COc1ccc(C2SCCS2)cc1 | IC50 [4]: 50 µM |
| – | NC(=NOC(=O)c1ccccc1Cl)c1cccc(CS(=O)(=O)c2ccc(Cl)cc2)c1 | IC50 [4]: 60 µM |
| 0 | Cn1c(S)nnc1-c1ccc(Cl)cc1 | – |
| – | Nc1cc2ccccc2cc1C(=O)O | IC50 [1]: 15 µM; inhibition [5]: 74% |
| 0 | O=c1c2ccccc2nc2ccccn12 | – |
| 0 | O=c1[nH]nc2n1-c1ccccc1SC2 | – |
| 70 | Nc1ccc2c(c1)N1CCN=C1S2 | IC50 [6]: 50 µM |
| 0 | CCOC(=O)N1CCN(CC(O)Cn2c(=O)c3c(ncn3C)n(C)c2=O)CC1 (stereo not given) | – |
| – | c1ccc2c(c1)[nH]c1cnccc12 [NORHARMANE] | IC50 [1]: 90 µM |
| – | CSC(=N)N | pKa [7]: 9.83 |
| 70 | N/C(=N\OC(=O)c1ccccc1Cl)c1cccc(CS(=O)(=O)c2ccc(Cl)cc2)c1 | – |
| 0 | N/C(=N\OS(=O)(=O)c1ccc(Cl)cc1)c1ccc(C(F)(F)F)cc1 | – |
| – | N=C(NOC(=O)c1cc2ccccc2oc1=O)c1ccc(Oc2ccc(C(F)(F)F)cc2[N+](=O)[O-])cc1 | IC50 [4]: 20 µM |
| 0 | N/C(CS(=O)(=O)c1ccccc1)=N\O | – |
| 0 | CN(C)CCCNc1cccc(Cl)c1C#N | – |
| 70 | N/C(=N/OC(=O)c1cc2ccccc2oc1=O)c1ccc(Oc2ccc(C(F)(F)F)cc2[N+](=O)[O-])cc1 | – |
| 0 | S=C1N2CCN=C2SC2=NCCN12 | – |
| – | COC(=O)c1cc2ccccc2cc1N | IC50 [1]: 460 µM |
| 0 | OC1(c2ccc(Cl)cc2)CCN(Cn2nnc3ccccc32)CC1 | – |
| 0 | O[C@@H](CNCCNc1nccc(C(F)(F)F)n1)CSc1ccc(F)cc1 | – |
